What was measured:
[1] = tested on: pancreatic cancer(BxPC-3) cell line; experiment: WST-1 assay, cell viability of pancreatic cancer cell line; type: cell-based; settings: 10-100 µg/Mℓ, 24 hours, FIG. 8
Method: (§1) The cytotoxicity of the Tr-9 compound to six cancer cell lines was confirmed. Lung cancer(A549), gastric cancer(AGS), liver cancer(Hep3B)), breast cancer(MDA-MB-231), colorectal cancer(HCT116) and pancreatic cancer(BxPC-3) cell lines and fibroblasts were aliquoted in a 96-well plate in an amount of 5×10^3 cells/well, and the novel compound Tr-9 was treated thereto at a concentration of 10, 20, 40, 60, 80, 100 µg/Mℓ for 24 hours, respectively. Lung cancer cell line was further treated at a concentration of 100 µg/Mℓ for 24 hours, 48 hours and 72 hours.
(§2) Then, the amount of living cells was measured using WST(high sensitive Water Soluble Tetrazolium salt). WST reacts with dehydrogenase in living cells and produces orange-colored watersoluble formazan. Since dehydrogenase that reacts with WST is an enzyme present in the mitochondrial electron transport chain of metabolically active cells and is effective only in living cells, the production of formazan is proportional to the number of living cells. Therefore, the absorbance at 450 nm was measured to confirm the cell viability through the formation of formazan.

[2] = tested on: breast cancer(MDA-MB-231) cell line; experiment: WST-1 assay, cell viability of breast cancer cell line; type: cell-based; settings: 10-100 µg/Mℓ, 24 hours, FIG. 5
Method: as §1, §2

[3] = tested on: colorectal cancer(HCT116) cell line; experiment: WST-1 assay, cell viability of colorectal cancer cell line; type: cell-based, human; settings: 10-100 µg/Mℓ, 24 hours, FIG. 7
Method: as §1, §2

[4] = tested on: gastric cancer(AGS) cell line; experiment: WST-1 assay, cell viability of gastric cancer cell line; type: cell-based; settings: 10-100 µg/Mℓ, 24 hours, FIG. 4
Method: as §1, §2

[5] = tested on: Lung cancer(A549) cell line; experiment: WST-1 assay, cell viability of lung cancer cell line; type: cell-based, human; settings: 10-100 µg/Mℓ, 24 hours, FIG. 3
Method: as §1, §2

[6] = tested on: liver cancer(Hep3B) cell line; experiment: WST-1 assay, cell viability of liver cancer cell line; type: cell-based; settings: 10-100 µg/Mℓ, 24 hours, FIG. 6
Method: as §1, §2

Measured: cell viability

C=C(C)C1CC2=CC(=O)CC2C(C)CC1OC(=O)/C(C)=C\C (stereo not drawn) [Tr-10]
decreases the cell viability: all assays above
